US4439426A, “Semisynthetic macrolidic antibiotics, intermediate compounds for their preparation and related pharmaceutical compositions containing them” (priority 1981, dated 1984)
Converted amounts (≈) assume the structure as drawn.

Legend:
Salmonella typhy LRP 8 = experiment: microbe, parasite or virus in culture; format: cell-based; settings: LRP8, solid medium, read-out: Minimum inhibiting concentration
Source text: (§1) the bacteriostatic power, expressed as the minimum inhibiting concentration (MIC) against both aerobic and anaerobic, Gram positive and Gram negative, bacterial stocks: the related results are reported in the tables 2 and 3.

[1] = system: Clostridium perfrigens ATCC 3624 LRP 206; experiment: microbe, parasite or virus in culture; format: cell-based; settings: ATCC3624, solid medium, anaerobic, read-out: Minimum inhibiting concentration
Source text: as §1

[2] = system: Streptococcus faecalis subs. zymogenes ATCC 12958 LRP 61; experiment: Bacteriostatic power in liquid medium (MIC); format: cell-based; settings: Enterococcus faecalis, ATCC12958; liquid medium; read-out: Minimum inhibiting concentration
Source text: as §1

[3] = system: Staphylococcus aureus ATCC 6538 P LRP 39; experiment: Bacteriostatic power in liquid medium (MIC); format: cell-based; settings: Staphylococcus aureus, ATCC6538; liquid medium; read-out: Minimum inhibiting concentration
Source text: as §1

[4] = system: Streptococcus pyogenes ATCC 8668 LRP 34; experiment: Bacteriostatic power in liquid medium (MIC); format: cell-based; settings: Streptococcus pyogenes, ATCC8668; liquid medium; read-out: Minimum inhibiting concentration
Source text: as §1

[5] = system: Streptococcus pneumoniae ATCC 6303 LRP 35; experiment: Bacteriostatic power in liquid medium (MIC); format: cell-based; settings: Streptococcus pneumoniae, ATCC6303; liquid medium; read-out: Minimum inhibiting concentration
Source text: as §1

[6] = system: Corynebacterium diphteriae LRP 24; experiment: Bacteriostatic power in liquid medium (MIC); format: cell-based; settings: Corynebacterium, LRP24; liquid medium; read-out: Minimum inhibiting concentration
Source text: as §1

[7] = Stability in acidic environment at 25° C. (half-life of initial microbiological activity); format: physicochemical; settings: aqueous solution
Protocol: Stability in acidic environnment at 25° C. of the novel
Note: t 1/2 represents the time for reducing to one half the initial powe
of the antibiotic determined by microbiological method through diffusion
on a plate using the test stock Microccocus luteus (Sarcina lutea) ATCC

Escherichia coli LRP 50 = experiment: Bacteriostatic power in solid medium (MIC); format: cell-based; settings: Escherichia coli, LRP50; solid medium; read-out: Minimum inhibiting concentration
Source text: as §1

[8] = system: Fusobacteriumnecrophroum ATCC 27852 LRP 210; experiment: Bacteriostatic power in solid medium (MIC); format: cell-based; settings: solid medium; anaerobic; read-out: Minimum inhibiting concentration
Source text: as §1

[9] = system: Klelsiella pneumoniae LRP 54; experiment: Bacteriostatic power in solid medium (MIC); format: cell-based; settings: solid medium; read-out: Minimum inhibiting concentration
Source text: as §1

[10] = system: Neisseria gonorrhoeae ATCC 19424 LRP 214; experiment: Bacteriostatic power in solid medium (MIC); format: cell-based; settings: Neisseria gonorrhoeae, ATCC19424; solid medium; read-out: Minimum inhibiting concentration
Source text: as §1

[11] = system: Streptococcus pneumoniae ATCC 6303 LRP 52; experiment: Bacteriostatic power in solid medium (MIC); format: cell-based; settings: Streptococcus pneumoniae, ATCC6303; solid medium; read-out: Minimum inhibiting concentration
Source text: as §1

Shigella sonnei LRP 5 = experiment: Bacteriostatic power in solid medium (MIC); format: cell-based; settings: LRP5, read-out: Minimum inhibiting concentration
Source text: as §1

[12] = system: Acholeplasma laidlawii ATCC 23206 LRP 204; experiment: Bacteriostatic power in solid medium (MIC); format: cell-based; settings: Acholeplasma laidlawii, ATCC23206, read-out: Minimum inhibiting concentration
Source text: as §1

Bacillus subtilis LRP 25 = experiment: Bacteriostatic power in solid medium (MIC); format: cell-based; settings: Bacillus subtilis, LRP25; solid medium; read-out: Minimum inhibiting concentration
Source text: as §1

[13] = system: Staphylococcus aureus ATCC 14154 LRP 78; experiment: Bacteriostatic power in solid medium (MIC); format: cell-based; settings: Staphylococcus aureus, ATCC14154; solid medium; Erythromycin resistant; read-out: Minimum inhibiting concentration
Source text: as §1

[14] = system: Streptococcus pyogenes ATCC 8668 LRP 34; experiment: Bacteriostatic power in solid medium (MIC); format: cell-based; settings: Streptococcus pyogenes, ATCC8668; solid medium; read-out: Minimum inhibiting concentration
Source text: as §1

[15] = system: Proteus vulgaris ATCC 6380 LRP 13; experiment: Bacteriostatic power in solid medium (MIC); format: cell-based; settings: Proteus vulgaris, ATCC6380; solid medium; read-out: Minimum inhibiting concentration
Source text: as §1

[16] = system: Staphylococcus aureus ATCC 6538P LRP 14; experiment: Bacteriostatic power in solid medium (MIC); format: cell-based; settings: Staphylococcus aureus, ATCC6538P; solid medium; Penycilline resistant; read-out: Minimum inhibiting concentration
Source text: as §1

[17] = system: Streptococcus pyogenes ATCC 8668 LRP 197; experiment: Bacteriostatic power in solid medium (MIC); format: cell-based; settings: Streptococcus pyogenes, ATCC8668; solid medium; read-out: Minimum inhibiting concentration
Source text: as §1

[18] = system: Micrococcus luteus ATCC 15957 LRP 193; experiment: Bacteriostatic power in solid medium (MIC); format: cell-based; settings: Micrococcus luteus, ATCC15957; solid medium; Erythromycin resistant; read-out: Minimum inhibiting concentration
Source text: as §1

[19] = system: Pseudomonas aeruginosa LRP 9; experiment: Bacteriostatic power in solid medium (MIC); format: cell-based; settings: Pseudomonas aeruginosa, LRP9; solid medium; read-out: Minimum inhibiting concentration
Source text: as §1

[20] = system: Staphylococcus aureus ATCC 6538P LRP 39; experiment: Bacteriostatic power in solid medium (MIC); format: cell-based; settings: Staphylococcus aureus, ATCC6538P; solid medium; read-out: Minimum inhibiting concentration
Source text: as §1

[21] = system: Streptococcus pneumoniae ATCC 6303 LRP 35; experiment: Bacteriostatic power in solid medium (MIC); format: cell-based; settings: Streptococcus pneumoniae, ATCC6303; solid medium; read-out: Minimum inhibiting concentration
Source text: as §1

[22] = system: Bacteroides fragilis ATCC 23745 LRP 205; experiment: Bacteriostatic power in solid medium (MIC); format: cell-based; settings: Bacteroides fragilis, ATCC23745; solid medium; anaerobic; read-out: Minimum inhibiting concentration
Source text: as §1

[23] = system: Haemophilus influenzae ATCC 19418 LRP 213; experiment: Bacteriostatic power in solid medium (MIC); format: cell-based; settings: Haemophilus influenzae, ATCC19418; solid medium; read-out: Minimum inhibiting concentration
Source text: as §1

[24] = system: Corynebacterium diphteriae LRP 24; experiment: Bacteriostatic power in solid medium (MIC); format: cell-based; settings: Corynebacterium, LRP24; solid medium; read-out: Minimum inhibiting concentration
Source text: as §1

[25] = system: Streptococcus faecalis LRP 7; experiment: Bacteriostatic power in solid medium (MIC); format: cell-based; settings: Enterococcus faecalis, LRP7; solid medium; read-out: Minimum inhibiting concentration
Source text: as §1

[26] = system: Streptococcus pneumoniae ATCC 6303 LRP 53; experiment: Bacteriostatic power in solid medium (MIC); format: cell-based; settings: Streptococcus pneumoniae, ATCC6303; solid medium; read-out: Minimum inhibiting concentration
Source text: as §1

[27] = system: Streptococcus faecalis subsp. zymogenes ATCC 12958 LRP 61; experiment: Bacteriostatic power in solid medium (MIC); format: cell-based; settings: Enterococcus faecalis, ATCC12958; solid medium; read-out: Minimum inhibiting concentration
Source text: as §1

[28] = system: Micrococcus luteus ATCC 9341 LRP 6; experiment: Bacteriostatic power in solid medium (MIC); format: cell-based; settings: Micrococcus luteus, ATCC9341; solid medium; read-out: Minimum inhibiting concentration
Source text: as §1

[29] = system: Mycoplasma hominis I ATCC 14027 LRP 211; experiment: Bacteriostatic power in solid medium (MIC); format: cell-based; settings: Metamycoplasma hominis, ATCC14027; solid medium; read-out: Minimum inhibiting concentration
Source text: as §1

[30] = system: Streptococcus faecalis subs. zymogenes LRP 61; experiment: Minimum bactericidal concentration (MBC); format: cell-based
Source text: (§2) the bacterial power, expressed as the minimum bactericidal power (MBC) against some Gram positive aerobic stocks (table 5).

[31] = system: Staphylococcus aureus ATCC 6538 P LRP 39; experiment: Minimum bactericidal concentration (MBC); format: cell-based
Source text: as §2

[32] = system: Streptococcus pyogenes ATCC 8668 LRP 34; experiment: Minimum bactericidal concentration (MBC); format: cell-based
Source text: as §2

[33] = system: Streptococcus pneumoniae ATCC 6303 LRP 35; experiment: Minimum bactericidal concentration (MBC); format: cell-based
Source text: as §2

[34] = system: Corynebacterium diphteriae LRP 24; experiment: Minimum bactericidal concentration (MBC); format: cell-based
Source text: as §2

With CC[C@H]1OC(=O)[C@H](C)[C@@H](O[C@H]2C[C@@](C)(O)[C@@H](O)[C@H](C)O2)[C@H](C)[C@@H](O[C@@H]2O[C@H](C)C[C@H](N(C)C)[C@H]2O)[C@](C)(O)C[C@](C)(F)C(=O)[C@H](C)[C@@H](O)[C@H]1C [P-80202, (8S)-8-fluoroerythromycin D] the MIC (Salmonella typhy LRP 8) was 12.5 µg/mL (≈ 17.3 µM), the MIC [1] was 3.12 µg/mL (≈ 4.32 µM) and the MIC [2] was 0.39 µg/mL (≈ 0.54 µM). For the same molecule, the MIC [3] was 0.195 µg/mL (≈ 0.27 µM), the MIC [4] was 0.049 µg/mL (≈ 0.0679 µM) and the MIC [5] was 0.049 µg/mL (≈ 0.0679 µM). For the same molecule, the MIC [6] was 0.012 µg/mL (≈ 0.0166 µM), the half-life ([7]; pH 2) was 0.4 h and the half-life ([7]; pH 3) was 10 h. For the same molecule, the MIC (Escherichia coli LRP 50) was 25 µg/mL (≈ 34.6 µM), the MIC [8] was 6.25 µg/mL (≈ 8.66 µM) and the MIC [9] was 25 µg/mL (≈ 34.6 µM). It also gave an MIC [10] of 0.097 µg/mL (≈ 0.134 µM), an MIC [11] of 0.024 µg/mL (≈ 0.0332 µM) and an MIC (Shigella sonnei LRP 5) of 25 µg/mL (≈ 34.6 µM). The MIC [12] was 3.12 µg/mL (≈ 4.32 µM), the MIC (Bacillus subtilis LRP 25) was 0.049 µg/mL (≈ 0.0679 µM) and the MIC [13] was 25 µg/mL (≈ 34.6 µM). It also gave an MIC [14] of 0.024 µg/mL (≈ 0.0332 µM), an MIC [15] of 25 µg/mL (≈ 34.6 µM) and an MIC [16] of 0.097 µg/mL (≈ 0.134 µM). The MIC [17] was 0.024 µg/mL (≈ 0.0332 µM), the MIC [18] was 25 µg/mL (≈ 34.6 µM) and the MIC [19] was 25 µg/mL (≈ 34.6 µM). The MIC [20] was 0.097 µg/mL (≈ 0.134 µM), the MIC [21] was 0.024 µg/mL (≈ 0.0332 µM) and the MIC [22] was 0.39 µg/mL (≈ 0.54 µM). For the same molecule, the MIC [23] was 6.25 µg/mL (≈ 8.66 µM), the MIC [24] was 0.006 µg/mL (≈ 0.00831 µM) and the MIC [25] was 0.097 µg/mL (≈ 0.134 µM). It also gave an MIC [26] of 0.024 µg/mL (≈ 0.0332 µM), an MIC [27] of 0.097 µg/mL (≈ 0.134 µM) and an MIC [28] of 0.006 µg/mL (≈ 0.00831 µM). The MIC [29] was 25 µg/mL (≈ 34.6 µM), the MBC/MIC [30] was 8 and the MBC ([30]; Enterococcus faecalis, read-out: Minimum bactericidal concentration (MBC)) was 3.12 µg/mL (≈ 4.32 µM). For the same molecule, the MBC/MIC [31] was 16, the MBC ([31]; Staphylococcus aureus, ATCC6538, read-out: Minimum bactericidal concentration (MBC)) was 3.12 µg/mL (≈ 4.32 µM) and the MBC/MIC [32] was 8. The MBC ([32]; Streptococcus pyogenes, ATCC8668, read-out: Minimum bactericidal concentration (MBC)) was 0.39 µg/mL (≈ 0.54 µM), the MBC/MIC [33] was 4 and the MBC ([33]; Streptococcus pneumoniae, ATCC6303, read-out: Minimum bactericidal concentration (MBC)) was 0.195 µg/mL (≈ 0.27 µM). For the same molecule, the MBC/MIC [34] was 16 and the MBC ([34]; Corynebacterium, LRP24, read-out: Minimum bactericidal concentration (MBC)) was 0.195 µg/mL (≈ 0.27 µM).
